Data as given in patent US6440405B1, “Quaternary ammonium functionalized dendrimers and methods of use therefor” (priority 1999, dated 2002).

Legend:
Staphylococcus aureus = details: reported results; cited from earlier work
[1] = system: recombinant E. coli strain TV 1048; experiment: Bioluminescence method (light-off response) with recombinant E. coli strain TV 1048; type: cell-based; details: at 5 min; by interpolation of bioluminescence against concentration curves

In the case of `CCCCCCCCCCCC[N+](C)(C)C.[Cl-]` [DTAC, n-dodecyltrimethyl ammonium chloride], the “effectiveness against S. aureus compared with D4ClNC12 (in words)” value (Staphylococcus aureus) is given as “Somewhat less effective” and the “EC50 (concentration causing a 50% reduction of the bioluminescence)” value [1] is given as “about 2000 ppm”.
